The results in this text go back to the Kinase Knowledgebase extract (Sharma et al. 2016).

As a reminder, the IC50 is the concentration needed to halve the response being measured. As a reminder, the Ki is a measure of affinity in units of concentration, obtained from inhibition or displacement. Read a low Ki as tighter binding.

The structures appear in SMILES notation.

MAPK14 (human), sequence (Q16539 whole entry, looked up): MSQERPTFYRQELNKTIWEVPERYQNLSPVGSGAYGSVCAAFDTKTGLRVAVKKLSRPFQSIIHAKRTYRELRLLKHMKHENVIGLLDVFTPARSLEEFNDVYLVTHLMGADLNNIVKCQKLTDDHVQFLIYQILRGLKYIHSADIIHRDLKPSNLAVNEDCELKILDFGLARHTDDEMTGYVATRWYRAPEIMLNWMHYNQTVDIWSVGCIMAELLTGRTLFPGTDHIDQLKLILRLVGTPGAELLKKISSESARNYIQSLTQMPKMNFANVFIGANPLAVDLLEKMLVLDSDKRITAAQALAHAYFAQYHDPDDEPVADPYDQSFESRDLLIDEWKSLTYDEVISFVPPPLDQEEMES

The experiment addresses MAPK14 (human) (UniProt Q16539). Put plainly: Inhibition of MAPK14 Kinase Activity.
`CC(C)n1c(CCCC(N)=O)nc(OCc2ccc(F)cc2F)c(Br)c1=O` displayed a half-inhibitory concentration (IC50) of 0.391 µM and a Ki of 0.181 µM.

For `CC(C)n1c(N2CCCC(C(N)=O)C2)nc(OCc2ccc(F)cc2F)c(Br)c1=O` (stereo unspecified), the half-inhibitory concentration (IC50) came to 0.119 µM and the inhibitory constant (Ki) came to 0.0616 µM.

Compound `CC(C)n1c(N2CC[C@@H](NC(=O)C(C)(C)O)C2)nc(OCc2ccc(F)cc2F)c(Cl)c1=O` registered a 50% inhibitory concentration (IC50) of 0.484 µM and a Ki of 0.31 µM.

As for `CNC(=O)CCc1nc(OCc2ccc(F)cc2F)c(Cl)c(=O)n1C(C)C`, the 50% inhibitory concentration (IC50) was 2.43 µM and the Ki is 1.16 µM.

Compound `CC(C)n1c(N2CCC(O)CC2)nc(OCc2ccc(F)cc2F)c(Br)c1=O` came in with a concentration for half-maximal inhibition (IC50) of 0.304 µM and a Ki of 0.166 µM.

On to `CC(=O)NCCNc1nc(OCc2ccc(F)cc2F)c(Cl)c(=O)n1C(C)C`, for which the 50% inhibitory concentration (IC50) was determined as 0.0281 µM and the Ki worked out at 0.0147 µM.

The compound `CC(C)n1c(NCC(N)=O)nc(OCc2ccc(F)cc2F)c(Cl)c1=O` came in with an IC50 of 0.102 µM and an inhibitory constant (Ki) of 0.048 µM.

In the case of `CC(C)n1c(NCCCNC(N)=O)nc(OCc2ccc(F)cc2F)c(Br)c1=O`, the IC50 came out at 0.005 µM and the Ki is 0.00209 µM.

`CC(C)n1c(-c2ccc(C(N)=O)cc2)nc(OCc2ccc(F)cc2F)c(Cl)c1=O` displayed a concentration for half-maximal inhibition (IC50) of 0.328 µM and a Ki of 0.181 µM.

Take `CC(C)n1c(NCCNC(=O)C(C)(C)O)nc(OCc2ccc(F)cc2F)c(Cl)c1=O`: the half-inhibitory concentration (IC50) was 0.0516 µM and the Ki is 0.0247 µM.

In turn, `CC(C)n1c(S(C)(=O)=O)nc(OCc2ccc(F)cc2F)c(Br)c1=O` displayed an IC50 of 0.299 µM and a Ki of 0.156 µM.

As for `CC(C)n1c(NCCNC(N)=O)nc(OCc2ccc(F)cc2F)c(Cl)c1=O`, the concentration for half-maximal inhibition (IC50) was 0.0196 µM and the Ki turned out to be 0.0101 µM.

For `CC(C)n1cnc(OCc2ccc(F)cc2F)c(Br)c1=O`, the IC50 stood at 0.053 µM and the inhibitory constant (Ki) turned out to be 0.0283 µM.

With `CC(C)n1c(OCCCC(=O)O)nc(OCc2ccc(F)cc2F)c(Cl)c1=O`, the IC50 stood at 0.229 µM and the inhibition constant (Ki) is 0.109 µM.

Consider `CC(C)n1c(CCCCO)nc(OCc2ccc(F)cc2F)c(Cl)c1=O`, for which the concentration for half-maximal inhibition (IC50) was found to be 0.181 µM and the Ki is 0.0905 µM.

The compound `CC(C)n1c(NCCCNS(C)(=O)=O)nc(OCc2ccc(F)cc2F)c(Br)c1=O` showed an IC50 of 0.0072 µM and a Ki of 0.00332 µM.

On to `CC(C)n1c(N2CCC(NC(=O)CN)C2)nc(OCc2ccc(F)cc2F)c(Br)c1=O` (stereo unspecified), for which the 50% inhibitory concentration (IC50) was found to be 0.217 µM and the inhibitory constant (Ki) was 0.118 µM.

`CC(C)n1c(NCCNS(C)(=O)=O)nc(OCc2ccc(F)cc2F)c(Cl)c1=O` displayed an IC50 of 0.0223 µM and a Ki of 0.0103 µM.

Consider `CC(C)n1c(NCCCNC(=O)C(C)(C)O)nc(OCc2ccc(F)cc2F)c(Br)c1=O`, for which the IC50 was 0.0238 µM and the Ki is 0.0127 µM.

For the compound `CC(C)n1c(N2CC[C@@H](NC(=O)OCc3ccccn3)C2)nc(OCc2ccc(F)cc2F)c(Br)c1=O`, the IC50 came out at 1.22 µM and the inhibition constant (Ki) was 0.756 µM.

Take `CC(C)n1c(NCCCC(N)=O)nc(OCc2ccc(F)cc2F)c(Br)c1=O`: the IC50 was found to be 0.0173 µM and the inhibition constant (Ki) was determined as 0.00882 µM.

The compound `C=CCc1nc(OCc2ccc(F)cc2F)c(Cl)c(=O)n1C(C)C` gave a half-inhibitory concentration (IC50) of 0.256 µM and an inhibition constant (Ki) of 0.133 µM.

`CC(C)n1c(N2CC[C@H](N)C2)nc(OCc2ccc(F)cc2F)c(Cl)c1=O`: the IC50 amounted to 1.66 µM and the inhibition constant (Ki) was 1.07 µM.

Consider `CC(C)n1c(OCCNC(=O)NCCO)nc(OCc2ccc(F)cc2F)c(Cl)c1=O`, for which the IC50 came out at 0.398 µM and the Ki was found to be 0.19 µM.

In turn, `CC(C)n1c(N2CC[C@@H](NC(=O)OCc3cccnc3)C2)nc(OCc2ccc(F)cc2F)c(Br)c1=O` showed a half-maximal inhibitory concentration (IC50) of 0.81 µM and an inhibition constant (Ki) of 0.476 µM.

As for `CC(=O)NCCCNc1nc(OCc2ccc(F)cc2F)c(Br)c(=O)n1C(C)C`, the IC50 was 0.013 µM and the Ki was 0.00662 µM.

In the case of `CC(C)n1c(N[C@@H](C)C(N)=O)nc(OCc2ccc(F)cc2F)c(Br)c1=O`, the IC50 was 0.0046 µM and the Ki turned out to be 0.00173 µM.

For the compound `CC(C)n1c(N2CC[C@H](NC(=O)CO)C2)nc(OCc2ccc(F)cc2F)c(Cl)c1=O`, the IC50 worked out at 0.813 µM and the Ki stood at 0.522 µM.

Turning to `CC(C)n1c(CCC(=O)O)nc(OCc2ccc(F)cc2F)c(Cl)c1=O`, the half-inhibitory concentration (IC50) was 2.33 µM and the inhibitory constant (Ki) amounted to 1.11 µM.

`CC(C)n1c(NCCNC(N)=O)nc(OCc2ccc(F)cc2F)c(Br)c1=O`: the IC50 came to 0.0142 µM and the Ki came out at 0.00704 µM.

Compound `CC(C)n1c(N2CC[C@@H](NC(=O)CO)C2)nc(OCc2ccc(F)cc2F)c(Cl)c1=O` registered an IC50 of 0.372 µM and a Ki of 0.238 µM.

Regarding `CC(C)n1c(OCCNS(C)(=O)=O)nc(OCc2ccc(F)cc2F)c(Br)c1=O`, the IC50 came out at 0.0185 µM and the inhibitory constant (Ki) is 0.00947 µM.

Consider `CC(C)n1c(-c2cccc(C(N)=O)c2)nc(OCc2ccc(F)cc2F)c(Br)c1=O`, for which the IC50 stood at 0.608 µM and the Ki came to 0.378 µM.

As to `CC(C)n1c(N2CCN(CC(N)=O)CC2)nc(OCc2ccc(F)cc2F)c(Br)c1=O`, the 50% inhibitory concentration (IC50) was 0.251 µM and the Ki worked out at 0.104 µM.

For the compound `CC(C)n1c(NCCNC(=O)CO)nc(OCc2ccc(F)cc2F)c(Cl)c1=O`, the IC50 amounted to 0.0221 µM and the inhibition constant Ki was found to be 0.0102 µM.

For the compound `CNC(=O)CCCc1nc(OCc2ccc(F)cc2F)c(Br)c(=O)n1C(C)C`, the 50% inhibitory concentration (IC50) is 0.557 µM and the Ki stood at 0.255 µM.

`CC(C)n1c(N2CCNCC2)nc(OCc2ccc(F)cc2F)c(Br)c1=O` had a 50% inhibitory concentration (IC50) of 0.732 µM and a Ki of 0.379 µM.

As to `CC(C)n1c(OCCCCO)nc(OCc2ccc(F)cc2F)c(Cl)c1=O`, the IC50 was determined as 0.139 µM and the Ki stood at 0.0685 µM.

In turn, `CC(=O)N[C@H]1CCN(c2nc(OCc3ccc(F)cc3F)c(Cl)c(=O)n2C(C)C)C1` gave an IC50 of 0.703 µM and an inhibitory constant (Ki) of 0.451 µM.

The compound `CC(C)n1c(NCCCNC(=O)CO)nc(OCc2ccc(F)cc2F)c(Br)c1=O` gave a half-inhibitory concentration (IC50) of 0.0125 µM and a Ki of 0.00595 µM.

Consider `CC(C)n1c(-c2ccccc2)nc(OCc2ccc(F)cc2F)c(Br)c1=O`, for which the IC50 amounted to 0.112 µM and the Ki was 0.0591 µM.

Compound `CC(C)n1c(OCCCC(=O)NCCO)nc(OCc2ccc(F)cc2F)c(Cl)c1=O` returned a concentration for half-maximal inhibition (IC50) of 0.33 µM and an inhibitory constant (Ki) of 0.157 µM.

With `CC(C)n1c(CNS(C)(=O)=O)nc(OCc2ccc(F)cc2F)c(Br)c1=O`, the IC50 was determined as 0.0594 µM and the Ki is 0.0285 µM.

For the compound `Cn1c(NCC(N)=O)nc(OCc2ccc(F)cc2F)c(Br)c1=O`, the IC50 is 0.954 µM and the inhibition constant (Ki) was found to be 0.532 µM.

For `CC(C)n1c(N2CCC[C@@H]2CO)nc(OCc2ccc(F)cc2F)c(Br)c1=O`, the half-maximal inhibitory concentration (IC50) stood at 0.0298 µM and the inhibition constant Ki worked out at 0.0157 µM.

`CSc1cc(OCc2ccc(F)cc2F)c(Br)c(=O)n1C(C)C` had a 50% inhibitory concentration (IC50) of 0.23 µM and an inhibition constant (Ki) of 0.119 µM.

With `CC(C)n1c(O)nc(OCc2ccc(F)cc2F)c(Cl)c1=O`, the IC50 is 0.267 µM and the Ki worked out at 0.139 µM.

Turning to `CC(C)n1c(N2CC[C@@H](N)C2)nc(OCc2ccc(F)cc2F)c(Cl)c1=O`, the IC50 came to 0.497 µM and the Ki was determined as 0.319 µM.

In the case of `Cc1nc(OCc2ccc(F)cc2F)c(Cl)c(=O)n1C(C)C`, the half-inhibitory concentration (IC50) amounted to 0.346 µM and the Ki stood at 0.155 µM.

The compound `CC(C)n1c(NCC(=O)NCCO)nc(OCc2ccc(F)cc2F)c(Br)c1=O` showed a half-inhibitory concentration (IC50) of 0.221 µM and a Ki of 0.105 µM.

`CC(C)n1c(-c2ccc(C(N)=O)cc2)nc(OCc2ccc(F)cc2F)c(Br)c1=O` returned an IC50 of 0.11 µM and a Ki of 0.0606 µM.

`CC(C)n1c(N2CC[C@@H](N)C2)nc(OCc2ccc(F)cc2F)c(Br)c1=O` registered a half-maximal inhibitory concentration (IC50) of 0.0696 µM and an inhibitory constant (Ki) of 0.0363 µM.

Compound `CC(C)n1c(NCCC(C)(C)C)nc(OCc2ccc(F)cc2F)c(Br)c1=O` had an IC50 of 0.131 µM and a Ki of 0.0661 µM.

In turn, `CC(C)n1c(CCC(N)=O)nc(OCc2ccc(F)cc2F)c(Cl)c1=O` displayed an IC50 of 2.04 µM and a Ki of 0.976 µM.

`CC(C)n1c(NCC(C)(C)O)nc(OCc2ccc(F)cc2F)c(Br)c1=O` yielded a half-inhibitory concentration (IC50) of 0.0317 µM and a Ki of 0.0166 µM.

Consider `CC(C)n1c(NCCNC(=O)C(C)(C)O)nc(OCc2ccc(F)cc2F)c(Br)c1=O`, for which the half-maximal inhibitory concentration (IC50) was 0.0172 µM and the inhibition constant (Ki) amounted to 0.00814 µM.

In the case of `COC(=O)c1ccc(CNc2nc(OCc3ccc(F)cc3F)c(Br)c(=O)n2C(C)C)cc1`, the IC50 worked out at 0.637 µM and the inhibition constant Ki is 0.304 µM.

In the case of `CC(C)n1c(NC[C@@H](O)CO)nc(OCc2ccc(F)cc2F)c(Br)c1=O`, the IC50 worked out at 0.0216 µM and the inhibition constant (Ki) came out at 0.0111 µM.
